Where no end group is shown, it is not given here. [ ]: non-standard residue; d: D form. Lys(Me2) = CN(C)CCCC[C@H](N)C(=O)O
Tests used:
Test in all cases: Histone peptide microarray
Type in all cases: binding, human
[1] = system: PHF21A; settings: GST-tagged PHF21A
Procedure, shortened: (§1)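 Histone peptide library (293 synthetic peptides, single/combinatorial PTMs) arrayed and probed with 0.5 μM purified GST-PHD domain; optimized protocol; quadruplicate mean and SD reported.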

[2] = system: ING3; settings: GST-tagged ING3
Procedure, shortened: as §1

[3] = system: BAZ2B; settings: GST-tagged BAZ2B
Procedure, shortened: as §1

[4] = system: ING5; settings: GST-tagged ING5
Procedure, shortened: as §1

[5] = system: ING2; settings: GST-tagged ING2
Procedure, shortened: as §1

[6] = system: CHD5 (PCC)
Procedure, shortened: as §1

[7] = system: MLL5; settings: GST-tagged MLL5
Procedure, shortened: as §1

[8] = system: KDM5B (1); settings: GST-tagged KDM5B (1)
Procedure, shortened: as §1

[9] = system: KDM5B (3); settings: GST-tagged KDM5B (3)
Procedure, shortened: as §1

[10] = system: PHF2; settings: GST-tagged PHF2
Procedure, shortened: as §1

[11] = system: ING4; settings: GST-tagged ING4
Procedure, shortened: as §1

[12] = system: ING1; settings: GST-tagged ING1
Procedure, shortened: as §1

[13] = system: KDM4C (TTP)
Procedure, shortened: as §1

[14] = system: PHF23; settings: GST-tagged PHF23
Procedure, shortened: as §1

[15] = system: PHF13; settings: GST-tagged PHF13
Procedure, shortened: as §1

[16] = system: BPTF (PB)
Procedure, shortened: as §1

[17] = system: KDM5A (1); settings: GST-tagged KDM5A (1)
Procedure, shortened: as §1

[18] = system: SP140L; settings: GST-tagged SP140L
Procedure, shortened: as §1

[19] = system: KDM7A; settings: GST-tagged KDM7A
Procedure, shortened: as §1

[20] = system: MORC3 (CW)
Procedure, shortened: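 GST-tagged PHD finger readers were expressed, purified and applied at 0.5 μM to a microarray of 293 synthetic histone peptides carrying single or combinatorial PTMs, using an optimized protocol. Binding signals are averages with standard deviation from 4 replicates.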

[21] = system: KDM5A (3); settings: GST-tagged KDM5A (3)
Procedure, shortened: as §1

[22] = system: DPF2 (PPC2W2)
Procedure, shortened: as §1

[23] = system: PHF8; settings: GST-tagged PHF8
Procedure, shortened: as §1

[24] = system: TAF3; settings: GST-tagged TAF3
Procedure, shortened: as §1

[25] = system: AIRE (PP); settings: GST-tagged AIRE (PP)
Procedure, shortened: as §1

[26] = system: CHD4 (PPCC)
Procedure, shortened: as §1

[27] = system: DIDO1; settings: GST-tagged DIDO1
Procedure, shortened: as §1

[28] = system: RAG2; settings: GST-tagged RAG2
Procedure, shortened: as §1

[29] = system: TRIM66 (PB)
Procedure, shortened: as §1

[30] = system: CHD5 (PPCC)
Procedure, shortened: as §1

[31] = system: PHRF1 (RP); settings: GST-tagged PHRF1 (RP)
Procedure, shortened: as §1

[32] = sheet "Array Heatmap", arrays performed twice, total replicate number n = 4
[33] = sheet Array Heatmap, each array performed twice, total n = 4

Q: Which “Array Heatmap signal, PHF21A” value [1, 32] does the source give for “H3K4A + K9me2 (1-15): H3 1-15 (ARTAQTAR[Lys(Me2)]STGGKA; UniProt P68431 2-16, looked up, variant K4A)” here?
A: 0.468

Q: And the “Array Heatmap signal, ING3” value [2, 32]?
A: 0.5843

Q: And the “Array Heatmap signal, BAZ2B” value [3, 32]?
A: 0.512

Q: What about the “Array Heatmap signal, ING5” value [4, 32] of the same substance?
A: 0.4518

Q: What about the “Array Heatmap signal, ING2” value [5, 32] of the same substance?
A: 0.695

Q: And the “Array Heatmap signal, CHD5 (PCC)” value ([6]; sheet "Array Heatmap", GST-tagged CHD5 (PCC), arrays performed twice, total replicate number n = 4)?
A: 0.7736

Q: And the “Array Heatmap signal, MLL5” value [7, 32]?
A: 0.7648

Q: And the “Array Heatmap signal, KDM5B (1)” value [8, 32]?
A: 0.7016

Q: What about the “Array Heatmap signal, KDM5B (3)” value [9, 32] of the same substance?
A: 0.59

Q: And the “Array Heatmap signal, PHF2” value [10, 32]?
A: 0.6167

Q: And the “Array Heatmap signal, ING4” value [11, 32]?
A: 0.5574

Q: What about the “Array Heatmap signal, ING1” value [12, 32] of the same substance?
A: 0.7124

Q: What about the “Array Heatmap signal, KDM4C (TTP)” value ([13]; sheet "Array Heatmap", GST-tagged KDM4C (TTP), arrays performed twice, total replicate number n = 4) of the same substance?
A: 0.6461

Q: What about the “Array Heatmap signal, PHF23” value [14, 32] of the same substance?
A: 0.6377

Q: What about the “Array Heatmap signal, PHF13” value [15, 32] of the same substance?
A: 0.6939

Q: What about the “Array Heatmap signal, BPTF (PB)” value ([16]; sheet "Array Heatmap", GST-tagged BPTF (PB), arrays performed twice, total replicate number n = 4) of the same substance?
A: 0.4333

Q: What about the “Array Heatmap signal, KDM5A (1)” value [17, 32] of the same substance?
A: 0.5206

Q: What about the “Array Heatmap signal, SP140L” value [18, 32] of the same substance?
A: 0.3864

Q: What about the “Array Heatmap signal, KDM7A” value [19, 32] of the same substance?
A: 0.6423

Q: What about the “Array Heatmap signal, MORC3 (CW)” value ([20]; sheet "Array Heatmap", GST-tagged MORC3 (CW), arrays performed twice, total replicate number n = 4) of the same substance?
A: 0.5677

Q: What about the “Array Heatmap signal, KDM5A (3)” value [21, 32] of the same substance?
A: 0.6587

Q: And the “Array Heatmap signal, DPF2 (PPC2W2)” value ([22]; sheet "Array Heatmap", GST-tagged DPF2 (PPC2W2), arrays performed twice, total replicate number n = 4)?
A: 0.7164

Q: And the “Array Heatmap signal, PHF8” value [23, 32]?
A: 0.5196

Q: And the “Array Heatmap signal, TAF3” value [24, 32]?
A: 0.4571

Q: What about the “Array Heatmap signal, AIRE (PP)” value [25, 32] of the same substance?
A: 0.5312

Q: What about the “Array Heatmap signal, CHD4 (PPCC)” value ([26]; sheet "Array Heatmap", GST-tagged CHD4 (PPCC), arrays performed twice, total replicate number n = 4) of the same substance?
A: 0.6182

Q: And the “Array Heatmap signal, DIDO1” value [27, 32]?
A: 0.8787

Q: What about the “Array Heatmap signal, RAG2” value [28, 32] of the same substance?
A: 0.4111

Q: And the “Array Heatmap signal, TRIM66 (PB)” value ([29]; sheet "Array Heatmap", GST-tagged TRIM66 (PB), arrays performed twice, total replicate number n = 4)?
A: 0.6262

Q: What about the “Array Heatmap signal, CHD5 (PPCC)” value ([30]; sheet "Array Heatmap", GST-tagged CHD5 (PPCC), arrays performed twice, total replicate number n = 4) of the same substance?
A: 0.6167

Q: What about the “Array Heatmap signal, PHRF1 (RP)” value [31, 32] of the same substance?
A: 0.5557

Q: Which results are given for H3K4ac + K9ac + K14ac + K18ac: H3 1-20?
A: Array Heatmap signal (histone peptide microarray) [1, 33]: 0.4272; Array Heatmap signal (histone peptide microarray) [2, 33]: 0.4699; Array Heatmap signal (histone peptide microarray) [3, 33]: 0.563; Array Heatmap signal (histone peptide microarray) [4, 33]: 0.3295; Array Heatmap signal (histone peptide microarray) [5, 33]: 0.6105; Array Heatmap signal (histone peptide microarray) ([6]; GST-tagged CHD5 (PCC = PHD + Dual Chromodomain), sheet Array Heatmap, each array performed twice, total n = 4): 0.7123; Array Heatmap signal (histone peptide microarray) [7, 33]: 0.5536; Array Heatmap signal (histone peptide microarray) [8, 33]: 0.573; Array Heatmap signal (histone peptide microarray) [9, 33]: 0.4694; Array Heatmap signal (histone peptide microarray) [10, 33]: 0.6121; Array Heatmap signal (histone peptide microarray) [11, 33]: 0.4318; Array Heatmap signal (histone peptide microarray) [12, 33]: 0.5598; Array Heatmap signal (histone peptide microarray) ([13]; GST-tagged KDM4C (TTP = Tandem Tudor domain + PHD), sheet Array Heatmap, each array performed twice, total n = 4): 0.4292; Array Heatmap signal (histone peptide microarray) [14, 33]: 0.5552; Array Heatmap signal (histone peptide microarray) [15, 33]: 0.5706; Array Heatmap signal (histone peptide microarray) ([16]; GST-tagged BPTF (PB = PHD + Bromodomain), sheet Array Heatmap, each array performed twice, total n = 4): 0.3593; Array Heatmap signal (histone peptide microarray) [17, 33]: 0.4231; Array Heatmap signal (histone peptide microarray) [18, 33]: 0.3096; Array Heatmap signal (histone peptide microarray) [19, 33]: 0.3021; Array Heatmap signal (histone peptide microarray) ([20]; GST-tagged MORC3 (CW = CW-type Zn-finger), sheet Array Heatmap, each array performed twice, total n = 4): 0.3581; Array Heatmap signal (histone peptide microarray) [21, 33]: 0.4281; Array Heatmap signal (histone peptide microarray) ([22]; GST-tagged DPF2 (PPC2W2 = Dual PHD + C2W2-type Zn-finger), sheet Array Heatmap, each array performed twice, total n = 4): 0.6596; Array Heatmap signal (histone peptide microarray) [23, 33]: 0.3207; Array Heatmap signal (histone peptide microarray) [24, 33]: 0.2581; Array Heatmap signal (histone peptide microarray) [25, 33]: 0.3782; Array Heatmap signal (histone peptide microarray) ([26]; GST-tagged CHD4 (PPCC = Dual PHD + Dual Chromodomain), sheet Array Heatmap, each array performed twice, total n = 4): 0.5829; Array Heatmap signal (histone peptide microarray) [27, 33]: 0.7084; Array Heatmap signal (histone peptide microarray) [28, 33]: 0.2412; Array Heatmap signal (histone peptide microarray) ([29]; GST-tagged TRIM66 (PB = PHD + Bromodomain), sheet Array Heatmap, each array performed twice, total n = 4): 0.6561; Array Heatmap signal (histone peptide microarray) ([30]; GST-tagged CHD5 (PPCC = Dual PHD + Dual Chromodomain), sheet Array Heatmap, each array performed twice, total n = 4): 0.5084; Array Heatmap signal (histone peptide microarray) [31, 33]: 0.4629
